Residues, ends and D or L forms follow the SMILES beside them. *: point of attachment. Palmitoyl = CCCCCCCCCCCCCCCC(=O)*
Assays:
[1] = Ex vivo skin penetration study (Franz cell, magnetic arrays moved above epidermis); format: in vitro ADME, human; settings: arrays 1 (uni-directional, 27 mT) and 2 (bi-directional, overall 21 mT) of Table 1; 400 μg/ml in 50:50 PG:PB pH 4
Experimental: An ex vivo skin penetration study was conducted to compare the ability of different magnetic arrays to enhance penetration of Pal-KTTKS (SEQ ID NO: 1) into the epidermis of human skin. The dermis and epidermis of human skin samples obtained from donors aged 60-65 years were heat separated and the dermis discarded. 20 μL of a Pal-KTTKS (SEQ ID NO: 1) containing composition (400 μg/ml in 50:50 PG:PB at pH 4) was placed on human epidermis in Franz cell. Different magnetic arrays were positioned approximately 1.0 mm above the epidermis samples and moved over the samples at the speed a user might move a cosmetic applicator when applying a skin care product (e.g., about 20-25 cm/sec). Samples were taken and measured at 0, 1, 2, 4, 6, 8, 24 hours. […] For the bi-directional arrays herein, the “1st layer” refers to the layer closest to the skin-contacting surface of the applicator, and the “2nd layer” refers to the layer disposed on the side of the 1st layer opposite the side closest to the skin-contacting surface.

[2] = In vivo skin penetration study #2, Tape Stripping method (magnetic vs non-magnetic applicator); parameters: species or system human
Experimental: (§1) This method provides a suitable means of measuring the amount of skin care active present in skin, and comparing active versus passive application of the skin care active. Two identical rectangular areas of 15 cm^2 are marked on the volar forearms of volunteers. A measured dose (approximately 30 mg) of the Pal-KTTKS (SEQ ID NO: 1) formulation is applied to the delineated areas using a screw actuated syringe. Active application is carried out on one of the delineated areas using the three-quarter profile of a purpose made applicator (e.g., an applicator presenting one of the magnetic arrays set forth in Table 2). Passive application is accomplished on the other delineated area using the tip of a finger in a sweeping motion identical to that of the active application. The formulation is spread evenly across the entire delineated region using a sweeping motion with a fixed speed of approximately 23 cm/s to […]. The application period is 30 seconds during which time visual inspection is used to ensure even distribution and absorption of the formulation by skin. The application area is then left uncovered for a further 30 minutes to ensure complete absorption. Tape strip samples may be collected and/or analyzed immediately after the complete absorption is ensured or after a waiting period (e.g., after multiple applications of the formulation over multiple hours or days).
(§2) The tape stripping procedure is carried out using 10 commercial pre-cut 22.1 mm tape stripping adhesive discs (e.g., D-SQUAME brand tape strips, available from Cuderm Corporation, or equivalent) with an adhesive area of 3.8 cm^2. The 10 tape strips are applied sequentially to the same sampling site, which ideally enables each tape strip to obtain a sample from deeper within the stratum corneum than the tape strip that preceded it. A 22.1 mm diameter circular region is marked at the center of the application area. A tape stripping adhesive disc is placed over the marked area and even pressure applied using, for example, a neoprene roller, rolled ten times over the adhesive disc. The adhesive disc is removed from the skin surface in a single pulling motion using manual tweezers. To ensure even removal of the skin sample, subsequent discs are removed in a “north, south, east and west” orientation, which is within the skill of the ordinary artisan. Each adhesive disc is non-destructively analyzed for protein content using a suitable instrument (e.g., SquameScan™ 850 instrument commercially available from Heiland Electronics Wetzlar, Germany, or equivalent). The adhesive disc is then immediately placed into a glass vial containing extraction solvent in preparation for subsequent analysis. Solvent extractions are conducted on each tape strip using conventional extraction methods, which are well known to those of ordinary skill in the art, and measuring the amount of Pal-KTTKS (SEQ ID NO: 1) present in the extract, for example, by high performance liquid chromatography (“HPLC”) and/or mass spectrometry.
The procedure is repeated for the remaining nine strips. An additional strip is obtained from outside the area of application of the skin care formulation to serve as a blank sample. The amount of active is normalized to the amount of protein measured. […]

[3] = In vivo skin penetration study #1, Tape Stripping method (active magnetic array vs passive finger application); parameters: species or system human
Experimental: An in vivo skin penetration study was conducted to establish the effect of using a skin care product of the present invention by applying a skin care composition comprising Pal-KTTKS (SEQ ID NO: 1) with an applicator comprising a magnetic array. The study compared the penetration of the Pal-KTTKS (SEQ ID NO: 1) in combination with a variety of magnetic arrays (active application) to the penetration of Pal-KTTKS (SEQ ID NO: 1) applied with a finger (passive application). Penetration of Pal-KTTKS (SEQ ID NO: 1) in this example is determined according to the Tape Stripping method. In this example, the level of Pal-KTTKS (SEQ ID NO: 1) present in the extract from each tape strip was measured using HPLC and the results normalized to the protein level measured on the tape strip.
as §1, §2
The procedure is repeated for the remaining nine strips. An additional strip is obtained from outside the area of application of the skin care formulation to serve as a blank sample. […]

[4] = Diamagnetic susceptibility; format: physicochemical; settings: dimensionless
[5] = magnetic applicator with array #8, average across all 10 test sites, in ng (unit assumed)
[6] = non-magnetic applicator, average across all 10 test sites, in ng (unit assumed)

CCCCCCCCCCCCCCCC(=O)N[C@@H](CCCCN)C(=O)N[C@H](C(=O)N[C@H](C(=O)N[C@@H](CCCCN)C(=O)N[C@@H](CO)C(=O)O)[C@@H](C)O)[C@@H](C)O [Pal-KTTKS, palmitoyl-lysine-threonine-threonine-lysine-serine] (Palmitoyl-KTTKS-OH; C-terminus assumed)
penetration enhancement of Pal-KTTKS into human epidermis [1]: demonstrated the best penetration enhancement | Enhancement value Strips 2-10 (active/passive), Avg ([2]; array #8 vs non-magnetic applicator, average of the enhancement values of all test sites): 4 | Sum 2-10 of Pal-KTTKS recovered, active application, Avg [2, 5]: 42.02 | Sum 6-10 of Pal-KTTKS recovered, active application, Avg [2, 5]: 22.74 | Sum 2-10 of Pal-KTTKS recovered, passive application, Avg [2, 6]: 20.55 | Sum 6-10 of Pal-KTTKS recovered, passive application, Avg [2, 6]: 10.01 | Enhancement (active/passive) ([3]; array #4, tape strips 2-4, from average values of Table 11): 1.54 | Enhancement (active/passive) ([3]; array #4, tape strips 5-7, from average values of Table 11): 2.18 | Enhancement (active/passive) ([3]; array #4, tape strips 8-10, from average values of Table 11): 2.98 | Enhancement (active/passive) ([3]; array #9, tape strips 2-4, from average values of Table 9): 4.19 | Enhancement (active/passive) ([3]; array #9, tape strips 5-7, from average values of Table 9): 2.38 | Enhancement (active/passive) ([3]; array #9, tape strips 8-10, from average values of Table 9): 3.78 | penetration enhancement compared with other magnetic arrays ([3]; magnetic array #4 (uni-directional)): better penetration enhancement than some of the other magnetic arrays tested | penetration enhancement compared with other magnetic arrays ([3]; magnetic array #9 (bi-directional)): better penetration enhancement than some of the other magnetic arrays tested | diamagnetic susceptibility [4]: approximately −519

From patent US10034827B2, “Skin care product and method of use” (The Procter & Gamble Company, priority 2014, dated 2018)
